Data taken from patent publication US7612073B2, “Methods of administering tetrahydrobiopterin, associated compositions, and methods of measuring” (Biomarin Pharmaceutical Inc., priority 2007, dated 2009).
“Also recorded” adds a separate entry of the source.

What was measured:
[1] = water adsorption (hygroscopicity) of crystal forms; assay type: physicochemical; settings: dihydrochloride
[2] = relative bioavailability of dissolved vs intact tablets and effect of food in healthy subjects; assay type: in vivo, human
Excerpt: The primary objectives of the study were: (1) to evaluate the relative bioavailability of tetrahydrobiopterin (BH4, sapropterin dihydrochloride) when administered after dissolution of tablet(s) in water or administered as intact tablet(s); (2) to compare the effect of food on the bioavailability of BH4 in healthy subjects. The secondary objective of the study was to assess the safety and tolerability of single oral doses of BH4 in healthy subjects.
This study was an open-label, randomized, three-treatment, six-sequence, three-period crossover study in which 30 subjects were to complete 3 single-dose dosing periods and were randomized to one of six sequence groups (Groups 1, 2, 3, 4, 5, and 6): […]
where all dosing groups received BH4 10 mg/kg orally as follows: a: administered after dissolution of tablet(s) in water given in fasting under fasting conditions b: administered as intact tablet(s) given in fasting under fasting conditions c: administered as intact tablet(s) given 30 minutes after beginning to ingest a high-calorie, high-fat meal in fed conditions Each subject received a single dose of 10 mg/kg of BH4 during each treatment period. A washout period of at least seven days separated each dose administration. A post-study assessment was performed 5-7 days after discharge of the third treatment period. Blood samples for Pharmacokinetic (PK) analysis were drawn at scheduled collection times during each study period: within 30 minutes prior to dose, and 0.5, 1.0, 1.5, 2.0, 2.5, 3.0, 3.5, 4.0, 5.0, 6.0, 8.0, 10.0, 12.0, 18.0, and 24.0 hours post-dose.
Blood (plasma) pharmacokinetic (PK) characteristics were assessed after each dose of study medication. All subjects remained seated in an upright position for 4 hours post-dose. The blood samples were drawn within 30 minutes prior to dose and at 0.5, 1.0, 1.5, 2.0, 2.5, 3.0, 3.5, 4.0, 5.0, 6.0, 8.0, 10.0, 12.0, 18.0, and 24.0 hours post dose. Samples were collected in appropriately labeled 6 mL K2-EDTA purple top Vacutainer® tubes. Blood samples were centrifuged at approximately 3000 rpm at 4° C. for 10 minutes. From the resulting plasma, exactly 1 mL was removed from each sample using a pipet, and placed into an aliquot tube containing 0.1% w/v dithioerythritol. The sample was capped and vortexed for approximately 10 seconds using a VWR Mini Vortexer at speed 6. After completion of these steps, the sample was flash frozen in an isopropyl/dry ice bath and placed in a −70° C. freezer pending analysis.
Pharmacokinetic (PK) analysis of plasma BH4 concentration-time data was performed using non-compartmental methods to obtain estimates of the following PK parameters: • Peak plasma concentration (Cmax) and time to peak concentration (Tmax), obtained directly from the data without interpolation; • λz, the apparent terminal elimination rate constant, determined by log-linear regression of the terminal plasma concentrations; • Area under the plasma concentration-time curve from time zero to the time of last measurable concentration [AUC(0-t)], calculated by the linear trapezoidal method; • The apparent elimination half-life (t½), calculated as 0.693/λz; • Area under the plasma concentration-time curve from time 0 to infinity [AUC(inf)] where AUC(inf)=AUC(0-t)+Ct/λz and Ct is the last measurable concentration. Estimation of Absorption Rate […]
Comparison of the pharmacokinetic parameters Cmax, AUC(0-t), and AUC(inf) for BH4 was conducted using an analysis of variance (ANOVA) model with sequence, subject within sequence, treatment, and period as the classification variables using the natural logarithms of the parameters as the dependent variables. The comparisons of interest were between the dissolved and intact tablet in the fasted state and the intact tablet in the fed and fasted states.

[3] = rat, radioactive markers in urine
physchem [4] = assay type: physicochemical
Excerpt: Although there is ample literature describing increased bioavailability in fed conditions, this food effect is typically seen with lipophilic (i.e., lipid soluble) water-insoluble drugs and not usually with high water soluble active substance such as BH4. The usual explanation for increases in bioavailability under fed conditions for lipophilic compounds is that high fat meals help solubilize the drug since “like dissolves like” and this makes it available for absorption. Another possible explanation is that high fat meals stimulate the secretion of bile acids which are natural bio-surfactants that help solubilize and emulsify the fats we eat to aid their digestion. These bile acids are also thought to solubilize water-insoluble compounds thereby making them available for absorption. […] Therefore the enhancement of its bioavailability by high fat, high-energy meals is not consistent with such known mechanism.

[5] = safety and tolerability of single oral doses of BH4 in healthy subjects; assay type: in vivo, human
Method: Safety was evaluated for all subjects who take at least one dose of BH4.
Safety was evaluated by recording the incidence of adverse events, changes in 12-lead ECG parameters, vital signs and physical examination results, and changes in baseline in laboratory test values.
In this study, an adverse event (AE) was defined as any untoward medical occurrence in a subject or clinical investigation subject administered BH4, at any dose, whether or not it has a causal relationship with the event. An AE can therefore be any unfavorable and unintended sign (including an abnormal laboratory finding), symptom, or disease temporally associated with the use of BH4, whether or not related to BH4. This definition included intercurrent illnesses or injuries and exacerbation (increase in frequency, severity or specificity) of pre-existing conditions.
A serious adverse event (SAE) was defined as any AE that has at least one of the following outcomes: […]

[6] = set-up: species or system rats and monkeys; settings: rat, monkey, in vivo
Excerpt: Such variability in absorption of BH4 was also shown in a study described herein on the effect of food on the bioavailability of BH4 in healthy humans.

[7] = pharmacokinetics of sapropterin after a single oral administration in cynomolgus monkeys; assay type: in vivo, female cynomolgus monkeys; settings: monkey, 10 mg/kg oral
Method: A single dose of sapropterin (10 mg/kg) was administered orally to female cynomolgus monkeys (3/group) under fasting conditions.

physchem [8] = assay type: physicochemical; settings: for Estimated t1/2 Based on t1/2 Obtained at pH 3 (Min) / half-life: buffer
Method: However, administration as a solid or semi-solid dosage form and/or with a high-fat meal may maximize bioavailability by increasing the residence time of BH4 in the acidic milieu of the stomach and upper gastrointestinal tract (GIT) where BH4 is chemically stable. […] At pH 3.1, which is within realm of the typical pH of the stomach in normal volunteers, the stability of BH4 at a concentration of 1 mg/mL is over 3 hours. The chemical stability of BH4 may further increase when the pH of the stomach drops below pH 3.1. Therefore prolonged stomach residence time provides intact drug to the stomach wall for absorption, whereas rapid emptying into the intestine degrades BH4 and is thus not available to be absorbed.
In general, the objective of this study was to evaluate the stability of BH4 in buffer solutions ranging in pH from pH 1 to 7 (See Table 15) and in the presence and absence of antioxidants and with or without inert gas in the reaction solutions (See Table 16).
The stability of BH4 is expected to be temperature-dependent. Therefore, the compound stability was evaluated at 2-8° C., 25° C., 30° C. and 37° C. to support the determination of predictive long-term shelf lives for the compound at different temperatures. Determination of the stability of the compound at the physiologic temperature of 37° C. provides data to support the estimation of the stability lifetime of a formulated oral dosage form in the absorptive regions of the GI tract.
Based on this approximation, pH 1.2 to pH 3 solutions were sampled weekly initially and sampling time corrections were made if necessary after the first 2 data points were collected.
Studies were conducted in pH 1-7 buffer solutions and at 5° C., 25° C., 30° C. and 37° C.

C[C@H](O)[C@H](O)[C@H]1CNc2nc(N)[nH]c(=O)c2N1.Cl.Cl [Polymorph K, (6R)-L-erythro-tetrahydrobiopterin dihydrochloride]
water content adsorbed (hygroscopicity) [1]: about 2.0 percent by weight

C[C@H](O)[C@H](O)[C@H]1CNc2nc(N)[nH]c(=O)c2N1.Cl.Cl [Polymorph F, (6R)-L-erythro-tetrahydrobiopterin dihydrochloride]
water content adsorbed (hygroscopicity) [1]: about 3 percent by weight

C[C@H](O)[C@H](O)[C@H]1CNc2nc(N)[nH]c(=O)c2N1.Cl.Cl [Polymorph A, (6R)-L-erythro-tetrahydrobiopterin dihydrochloride]
water content adsorbed (hygroscopicity) [1]: about 3 percent by weight

C[C@H](O)[C@H](O)[C@H]1CNc2nc(N)[nH]c(=O)c2N1 [BH4, 6R-(L-erythro)-5,6,7,8-tetrahydrobiopterin]
median and range for Tmax, dissolved vs intact tablets ([2]; 10 mg/kg oral, fasted): essentially the same | upper limits of 90% confidence intervals of intact-to-dissolved ratios ([2]; 10 mg/kg oral, fasted): greater than 125% | increase in the extent of absorption, intact tablet compared to dissolved tablet ([2]; 10 mg/kg oral, healthy subjects): ~20% | average increase in Cmax and AUC, intact tablet relative to dissolved tablets ([2]; fasted conditions): 20% | increase in Cmax and AUC after a high fat/high calorie meal ([2]; intact tablet): approximately 30% | median and range for Tmax, fed vs fasted conditions ([2]; intact tablet 10 mg/kg): essentially the same | upper limits of 90% confidence intervals of fed-to-fasted ratios ([2]; intact tablet 10 mg/kg): greater than 125% | increase in Cmax and AUC after a high fat/high calorie meal ([2]; tablet dissolved in water): ~80% | rate of GI absorption [3]: 8.8% | solubility (physchem [4]): > 1000 mg/mL | study exit assessments, ECG and physical examination evaluations ([5]; human, in vivo): no clinically significant findings | adverse events assessed as mild ([5]; of 9 AEs): 8 AEs | adverse events assessed as moderate in severity ([5]; of 9 AEs): 1 AEs | events judged possibly related to the study drug ([5]; of 9 AEs): 4 events | events judged unrelated to the study drug ([5]; of 9 AEs): five | subjects reporting adverse events ([5]; single 10 mg/kg oral doses): 5 subjects | total adverse events reported ([5]; single 10 mg/kg oral doses): 9 adverse events | serious adverse events (SAEs) ([5]; single 10 mg/kg oral doses, healthy subjects, 10 mg/kg): no serious adverse events; also recorded: no AEs considered serious | BH4 absorbed in the gut [6]: 8-11% | ratio of reduced biopterin to total biopterins during the test period [7]: nearly constant | dependence of rate of degradation of BH4 (physchem [8]): concentration-dependent | effect of sparging on stability of BH4 (physchem [8]): substantially enhanced the stability | stability of BH4 at pH 3.1 (physchem [8]; 1 mg/mL, pH 3.1): over 3 hours | Estimated t1/2 Based on t1/2 Obtained at pH 3 (Min) (physchem [8]; pH 2): 177690.0 (123.4 days) Min | Estimated t1/2 Based on t1/2 Obtained at pH 3 (Min) (physchem [8]; pH 3): 17769.0 (12.34 days) Min | half-life (physchem [8]; pH 3): 12.3 days | half-life (physchem [8]; pH 3.1): 12.3 days | Estimated t1/2 Based on t1/2 Obtained at pH 3 (Min) (physchem [8]; pH 4): 1776.9 (1.23 days) Min | Estimated t1/2 Based on t1/2 Obtained at pH 3 (Min) (physchem [8]; pH 5): 177.7 (0.12 days) Min | Estimated t1/2 Based on t1/2 Obtained at pH 3 (Min) (physchem [8]; pH 6): 17.7 (0.01 days) Min | half-life (physchem [8]; pH 6.8): ~0.0104 days | Estimated t1/2 Based on t1/2 Obtained at pH 3 (Min) (physchem [8]; pH 7): 1.8 Min
